Among the data in patent US9040545B2, “Heterocyclyl pyrazolopyrimidine analogues as selective JAK inhibitors” (Cellzome Limited, priority 2010, dated 2015) are IC50 values, retold here.

The experiment deals with T1, JAK2 (Homo sapiens, UniProt O60674).
T1 construct: endogenous in cells; host or cells: mixed Molt4/Ramos lysate (1:2)
In words: Kinobeads assay, JAK2. It is filed as binding. The settings on record: mixed Molt4/Ramos lysate, read-out: Inhibition values (IC50) JAK2. In outline:
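Competition binding in mixed Molt4/Ramos cell lysate (1:2, 10 mg/mL protein) with Kinobeads carrying immobilized aminopyrido-pyrimidine ligand, 3 h in cold room; 9-step 1:3 compound dilution series from 5 mM DMSO stock. Bead-bound JAK2/JAK3 eluted and quantified by antibody dot blot with infrared detection; IC50 from dose-response curves.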

T1 sequence (O60674 whole entry): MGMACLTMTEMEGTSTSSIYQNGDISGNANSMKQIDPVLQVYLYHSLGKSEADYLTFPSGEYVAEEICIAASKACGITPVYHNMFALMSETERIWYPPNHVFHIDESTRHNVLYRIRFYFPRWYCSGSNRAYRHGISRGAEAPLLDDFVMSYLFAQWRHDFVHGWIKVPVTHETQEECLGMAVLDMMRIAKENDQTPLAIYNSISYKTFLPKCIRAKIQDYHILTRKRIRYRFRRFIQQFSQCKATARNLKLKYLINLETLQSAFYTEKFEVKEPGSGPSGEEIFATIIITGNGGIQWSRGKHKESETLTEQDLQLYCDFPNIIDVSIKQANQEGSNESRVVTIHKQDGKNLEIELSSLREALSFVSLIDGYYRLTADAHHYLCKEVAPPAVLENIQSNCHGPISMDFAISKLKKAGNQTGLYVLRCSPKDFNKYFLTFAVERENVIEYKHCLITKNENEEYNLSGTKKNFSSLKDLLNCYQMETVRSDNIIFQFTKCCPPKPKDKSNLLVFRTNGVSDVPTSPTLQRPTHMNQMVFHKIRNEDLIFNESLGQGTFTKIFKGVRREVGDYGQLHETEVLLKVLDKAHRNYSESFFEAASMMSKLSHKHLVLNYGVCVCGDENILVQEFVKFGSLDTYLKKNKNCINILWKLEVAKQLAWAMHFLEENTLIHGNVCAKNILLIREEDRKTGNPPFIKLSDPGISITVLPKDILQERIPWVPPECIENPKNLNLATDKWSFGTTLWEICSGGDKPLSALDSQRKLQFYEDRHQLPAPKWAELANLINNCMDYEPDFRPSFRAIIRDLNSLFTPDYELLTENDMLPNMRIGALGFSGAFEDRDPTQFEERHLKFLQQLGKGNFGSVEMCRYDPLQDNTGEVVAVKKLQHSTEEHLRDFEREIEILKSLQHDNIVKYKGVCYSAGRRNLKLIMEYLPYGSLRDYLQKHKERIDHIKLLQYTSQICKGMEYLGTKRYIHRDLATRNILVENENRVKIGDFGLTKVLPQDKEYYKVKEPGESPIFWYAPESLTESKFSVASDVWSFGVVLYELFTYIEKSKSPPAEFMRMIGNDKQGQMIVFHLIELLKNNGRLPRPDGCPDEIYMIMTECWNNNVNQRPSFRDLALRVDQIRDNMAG

Turning to `OCCn1cc(Nc2ncc3cnn(Cc4cccc(N5CCNCC5)c4F)c3n2)cn1` [Example 83, 2-(4-((1-(2-Fluoro-3-(piperazin-1-yl)benzyl)-1H-pyrazolo[3,4-d]pyrimidin-6-yl)amino)-1H-pyrazol-1-yl)ethanol], the half-maximal inhibitory concentration (IC50) (in general, the concentration that inhibits the measured activity by half) was 1 to 10 µM.

For the molecule `OCCn1cc(Nc2ncc3cnn(Cc4c(F)c(F)cc(N5CCOCC5)c4F)c3n2)cn1` [Example 45, 2-(4-((1-(2,3,6-Trifluoro-5-morpholinobenzyl)-1H-pyrazolo[3,4-d]pyrimidin-6-yl)amino)-1H-pyrazol-1-yl)ethanol], the concentration for half-maximal inhibition (IC50) is 1 to 10 µM. As for `Cn1cc(Nc2ncc3cnn(Cc4cc(N5CCOCC5=O)cc(F)c4F)c3n2)cn1` [Example 53, 4-(3,4-Difluoro-5-((6-((1-methyl-1H-pyrazol-4-yl)amino)-1H-pyrazolo[3,4-d]pyrimidin-1-yl)methyl)phenyl)morpholin-3-one], the 50% inhibitory concentration (IC50) was no less than 10 µM. As for `c1cc(Cn2ncc3cnc(Nc4cnn(CC5CCCNC5)c4)nc32)cc(N2CCOCC2)c1` (stereo not drawn) [Example 48, 1-(3-Morpholinobenzyl)-N-(1-(piperidin-3-ylmethyl)-1H-pyrazol-4-yl)-1H-pyrazolo[3,4-d]pyrimidin-6-amine], the IC50 was in the range of 1 to 10 µM.

Turning to `COC1CCN(c2cccc(Cn3ncc4cnc(Nc5cnn(C)c5)nc43)c2)CC1` [Example 77, 1-(3-(4-Methoxypiperidin-1-yl)benzyl)-N-(1-methyl-1H-pyrazol-4-yl)-1H-pyrazolo[3,4-d]pyrimidin-6-amine], the IC50 is no less than 10 µM. For `O=C1COCCN1c1cc(F)cc(Cn2ncc3cnc(Nc4cnn(CCO)c4)nc32)c1` [Example 58, 4-(3-Fluoro-5-((6-((1-(2-hydroxyethyl)-1H-pyrazol-4-yl)amino)-1H-pyrazolo[3,4-d]pyrimidin-1-yl)methyl)phenyl)morpholin-3-one] the value was 1 to 10 µM; for `c1cc(Cn2ncc3cnc(Nc4cnn(CC5CCNC5)c4)nc32)cc(N2CCOCC2)c1` (stereo not drawn) [Example 60, 1-(3-Morpholinobenzyl)-N-(1-(pyrrolidin-3-ylmethyl)-1H-pyrazol-4-yl)-1H-pyrazolo[3,4-d]pyrimidin-6-amine], 1 to 10 µM.

In the case of `OCCn1cc(Nc2ncc3cnn(Cc4c(F)ccc(N5CCOCC5)c4F)c3n2)cn1` [Example 82, 2-(4-((1-(2,6-Difluoro-3-morpholinobenzyl)-1H-pyrazolo[3,4-d]pyrimidin-6-yl)amino)-1H-pyrazol-1-yl)ethanol], the IC50 was no less than 10 µM. For `Cn1cc(Nc2ncc3cnn(Cc4cc(F)cc(N5CCOCC5)c4)c3n2)cn1` [Example 49, 1-(3-Fluoro-5-morpholinobenzyl)-N-(1-methyl-1H-pyrazol-4-yl)-1H-pyrazolo[3,4-d]pyrimidin-6-amine] the value was 1 to 10 µM; for `Cn1cc(Nc2ncc3cnn(Cc4cc(F)cc(C(=O)N5CCNCC5)c4)c3n2)cn1` [Example 80, (3-Fluoro-5-((6-((1-methyl-1H-pyrazol-4-yl)amino)-1H-pyrazolo[3,4-d]pyrimidin-1-yl)methyl)phenyl)(piperazin-1-yl)methanone], 1 to 10 µM. Regarding `Cn1cc(Nc2ncc3cnn(Cc4c(F)c(F)cc(N5CCNCC5)c4F)c3n2)cn1` [Example 66, N-(1-Methyl-1H-pyrazol-4-yl)-1-(2,3,6-trifluoro-5-(piperazin-1-yl)benzyl)-1H-pyrazolo[3,4-d]pyrimidin-6-amine], the IC50 lay within 1 to 10 µM. On to `Cn1cc(Nc2ncc3cnn(Cc4cc(F)cc(N5CCNCC5=O)c4)c3n2)cn1` [Example 64, 1-(3-Fluoro-5-((6-((1-methyl-1H-pyrazol-4-yl)amino)-1H-pyrazolo[3,4-d]pyrimidin-1-yl)methyl)phenyl)piperazin-2-one], for which the half-maximal inhibitory concentration (IC50) was 1 to 10 µM. For `OCCn1cc(Nc2ncc3cnn(Cc4cc(F)cc(N5CCOCC5)c4)c3n2)cn1` [Example 51, 2-(4-((1-(3-Fluoro-5-morpholinobenzyl)-1H-pyrazolo[3,4-d]pyrimidin-6-yl)amino)-1H-pyrazol-1-yl)ethanol] the value was 1 to 10 µM.

Consider `CNC(=O)Cn1cc(Nc2ncc3cnn(Cc4cc(F)cc(N5CCOCC5=O)c4)c3n2)cn1` [Example 68, 2-(4-((1-(3-Fluoro-5-(3-oxomorpholino)benzyl)-1H-pyrazolo[3,4-d]pyrimidin-6-yl)amino)-1H-pyrazol-1-yl)-N-methylacetamide], for which the IC50 lay in the range of 1 to 10 µM.

With `OCCn1cc(Nc2ncc3cnn(Cc4cccc(N5CCNCC5)c4)c3n2)cn1` [Example 47, 2-(4-((1-(3-(piperazin-1-yl)benzyl)-1H-pyrazolo[3,4-d]pyrimidin-6-yl)amino)-1H-pyrazol-1-yl)ethanol], the IC50 lay within 1 to 10 µM. For `Cn1cc(Nc2ncc3cnn(Cc4c(F)ccc(N5CCOCC5=O)c4F)c3n2)cn1` [Example 69, 4-(2,4-Difluoro-3-((6-((1-methyl-1H-pyrazol-4-yl)amino)-1H-pyrazolo[3,4-d]pyrimidin-1-yl)methyl)phenyl)morpholin-3-one] the value was 1 to 10 µM; for `OCCn1cc(Nc2ncc3cnn(Cc4cc(N5CCOCC5)ccc4F)c3n2)cn1` [Example 44, 2-(4-((1-(2-Fluoro-5-morpholinobenzyl)-1H-pyrazolo[3,4-d]pyrimidin-6-yl)amino)-1H-pyrazol-1-yl)ethanol], no less than 10 µM. Turning to `Cn1cc(Nc2ncc3cnn(Cc4cc(F)cc(C(=O)N5CCOCC5)c4)c3n2)cn1` [Example 79, (3-Fluoro-5-((6-((1-methyl-1H-pyrazol-4-yl)amino)-1H-pyrazolo[3,4-d]pyrimidin-1-yl)methyl)phenyl)(morpholino)methanone], the concentration for half-maximal inhibition (IC50) was 0.1 to 1 µM. Consider `O=C1CNCCN1c1cc(F)cc(Cn2ncc3cnc(Nc4cnn(CCO)c4)nc32)c1` [Example 63, 1-(3-Fluoro-5-((6-((1-(2-hydroxyethyl)-1H-pyrazol-4-yl)amino)-1H-pyrazolo[3,4-d]pyrimidin-1-yl)methyl)phenyl)piperazin-2-one], for which the concentration for half-maximal inhibition (IC50) lay in the range of 1 to 10 µM. For the molecule `CN(C)CCCn1cc(Nc2ncc3cnn(Cc4c(F)ccc(N5CCOCC5=O)c4F)c3n2)cn1` [Example 75, 4-(3-((6-((1-(3-(Dimethylamino)propyl)-1H-pyrazol-4-yl)amino)-1H-pyrazolo[3,4-d]pyrimidin-1-yl)methyl)-2,4-difluorophenyl)morpholin-3-one], the half-maximal inhibitory concentration (IC50) was in the range of 1 to 10 µM.

For the molecule `Cn1cc(Nc2ncc3cnn(Cc4cc(F)cc(N5CCOCC5=O)c4)c3n2)cn1` [Example 52, 4-(3-Fluoro-5-((6-((1-methyl-1H-pyrazol-4-yl)amino)-1H-pyrazolo[3,4-d]pyrimidin-1-yl)methyl)phenyl)morpholin-3-one], the IC50 lay in the range of 1 to 10 µM. Take `OCCn1cc(Nc2ncc3cnn(Cc4cc(N5CCOCC5)cc(F)c4F)c3n2)cn1` [Example 56, 2-(4-((1-(2,3-Difluoro-5-morpholinobenzyl)-1H-pyrazolo[3,4-d]pyrimidin-6-yl)amino)-1H-pyrazol-1-yl)ethanol]: the 50% inhibitory concentration (IC50) was no less than 10 µM. For `O=C1CNCCN1c1cccc(Cn2ncc3cnc(Nc4cnn(CCO)c4)nc32)c1` [Example 57, 1-(3-((6-((1-(2-Hydroxyethyl)-1H-pyrazol-4-yl)amino)-1H-pyrazolo[3,4-d]pyrimidin-1-yl)methyl)phenyl)piperazin-2-one], the IC50 is no less than 10 µM.

In the case of `O=C1COCCN1c1cc(F)cc(Cn2ncc3cnc(Nc4cn[nH]c4)nc32)c1` [Example 84, 4-(3-((6-((1H-Pyrazol-4-yl)amino)-1H-pyrazolo[3,4-d]pyrimidin-1-yl)methyl)-5-fluorophenyl)morpholin-3-one], the IC50 lay in the range of 0.1 to 1 µM.
